The subject of data set [1] is Rat aortic smooth muscle cells (RSMC). Kind of data set: cGMP level measurements in ANF-stimulated rat aortic smooth muscle cells. The settings on record: 30 minutes at 37° C. with compound, then ANF (100 nM) for 10 minutes, dose giving half of the stimulation at saturating concentrations. The data set is classed as cell-based. How it is done: Rat aortic smooth muscle cells (RSMC), prepared according to Chamley et al., Cell Tissue Res., 177, 503-522 (1977), were used between the 10th and 25th passage at confluence in 24-well culture dishes. Culture media was aspirated and replaced with PBS (0.5 ml) containing the compound tested at the appropriate concentration. After 30 minutes at 37° C., particulates guanylate cyclase was stimulated by addition of ANF (100 nM) for 10 minutes. At the end of incubation, the medium was withdrawn, and two extractions were performed by addition of 65% ethanol (0.25 ml). The two ethanolic extracts were pooled and evaporated until dryness, using a Speed-vac system. cGMP was measured after acetylation by scintillation proximity immunoassay (AMERSHAM). The EC50 values are expressed as the dose-giving half of the stimulation at saturating concentrations.

Data set [2] relates to conscious spontaneously hypertensive rats (SHRs). Kind of data set: Hypotensive effects in conscious spontaneously hypertensive rats. It counts as in vivo, rat. The settings on record: orally 5 mg/kg in 5% DMF and 95% olive oil; AUC from 0 to 5 hours of the fall in blood pressure. How it is done:
The hypotensive effects of compounds according to the invention as identified in Table 2 were studied in conscious spontaneously hypertensive rats (SHRs). The compounds were administered orally at a dose of 5 mg/kg in a mixture of 5% DMF and 95% olive oil. Blood pressure was measured from a catheter inserted in the carotid artery and recorded for five hours after administration. The results are expressed as Area Under the Curve (AUC) from 0 to 5 hours, mm Hg.hours of the fall in blood pressure over time.

For the next data set, the target named is human recombinant PDE5 (Homo sapiens, UniProt O76074). Kind of data set: Inhibitory effect on cGMP-PDE (one-step assay adapted from Wells et al.). The data set is classed as biochemical. The conditions noted are these: human recombinant PDE5, 0.15 μM 8-[H3]-cGMP, 30 minutes incubation, 2% DMSO. How it is done:
cGMP-PDE activity of compounds of the present invention was measured using a one-step assay adapted from Wells et al., Biochim. Biophys. Acta, 384, 430 (1975). The reaction medium contained 50 mM Tris-HCl, pH 7.5, 5 mM magnesium acetate, 250 μg/ml 5′-Nucleotidase, 1 mM EGTA, and 0.15 μM 8-[H^3]-cGMP. The enzyme used was a human recombinant PDE5 (ICOS Corp., Bothell, Wash.).
Compounds of the invention were dissolved in DMSO finally present at 2% in the assay.

Each structure is given as a SMILES string.

Consider `CN(C)Cc1ccc(/C=C/C(=O)N2CCc3c([nH]c4ccccc34)[C@H]2c2ccc3c(c2)CCO3)cn1` [Example 13, (E)-(R)-1-[1-(2,3-Dihydrobenzofuran-5-yl)-2,3,4,9-tetrahydro-β-carbolin-2-yl]-3-(6-dimethylaminomethyl-pyridin-3-yl)-propene-1-one], for which the melting point (as a rule, the temperature of the solid-liquid transition) was determined as 163 °C. Also, the half-maximal effective concentration (EC50) (as a rule, the concentration giving half of the maximal effect) in data set [1] is below 1000 nM. Besides, in data set [2], the “SHR AUC PO” value is reported as 57 mm Hg.h. Moreover, the half-maximal inhibitory concentration (IC50) (usually the midpoint of a concentration-inhibition curve) at human recombinant PDE5 was 30 nM.
The molecule `CN(C)c1ccc(/C=C/C(=O)N2CCc3c([nH]c4ccccc34)[C@H]2c2ccc3c(c2)CCO3)cn1` [Example 7, (E)-(R)-1-[1-(2,3-Dihydrobenzofuran-5-yl)-2,3,4,9-tetrahydro-β-carbolin-2-yl]-3-(6-dimethylamino-pyridin-3-yl)-propene-1-one] displayed a melting point of 171 °C. In addition, the EC50 in data set [1] was below 1000 nM. For the same molecule, in data set [2], the “SHR AUC PO” value worked out at 156 mm Hg.h. Moreover, the concentration for half-maximal inhibition (IC50) at human recombinant PDE5 was found to be 6 nM.

(Values after patent US6462047B1, “Carboline derivatives as cGMP phosphodiesterase inhibitors” (ICOS Corporation, priority 2001, dated 2002).)
